Measurements reported in patent publication US10221139B2, “Inhibitors of histone demethylases” (Gilead Sciences, Inc., priority 2012, dated 2019).

What follows are compounds tested on demethylation of H3K4 (H3K4me3 mark) in U2OS cells (assay: Histone lysine demethylase immunofluorescence assay, non-transfected U2OS cells (H3K4me3 staining)). Settings: Homo sapiens, 20 hours.
Type: cell-based
Procedure: Histone Lysine Demethylase Immunofluorescence Assays for IC50 Value Determination, Non-Transfected Cells
U2OS cells were harvested and seeded into multi well plates into media containing compound. The media used was DMEM containing 5% FBS and pen/strep. 20 hours after incubation of cells with compounds, the cells were washed once in PBS, harvested by fixation with formaldehyde 4% aqueous solution, and washed 2 times in PBS. Subsequently, the cells were permeabilized in PBS with 0.2% Triton X-100 for 10 min at room temperature. Blocking was performed in PBS with 0.2% Triton X-100 and 5% FBS for 45 min at room temperature. The cells were incubated with αH3K4me3 primary antibody (Cell Signaling, #9751S) diluted 1:1000 in blocking solution over night at 4° C. After incubation with primary antibody, the cells were washed 3 times with PBS, incubated with secondary antibody diluted 1:1000 (Alexa fluor 594 goat anti rabbit IgG, Invitrogen, A11012) and Hoechst, 20 μg/ml (Sigma, 33342) in blocking solution, and washed again 3 times with PBS. Finally, PBS was added and high throughput imaging and analysis were performed by an IN Cell Analyzer 1000 (GE Healthcare). The IC50 values seen in Table 4 were based on an average measure of the staining of the H3K4me3 mark in cells.
Compound `O=C(CNCc1cc(C(=O)O)ccn1)NC1CCN(CCCc2ccccc2)CC1` [drawing 223, 2-{[({[1-(3-phenylpropyl)piperidin-4-yl]carbamoyl}methyl)amino]methyl} pyridine-4-carboxylic acid] has an IC50 of over 50000 nM.
`COC(=O)c1ccnc(CNCCCN2CCCC2)c1` [drawing 224, methyl 2-({[3-(pyrrolidin-1-yl)propyl]amino}methyl)pyridine-4-carboxylate] gave an IC50 of 1000 to 50000 nM.
For `CCN(CC)CCCCNCc1cc(C(=O)O)ccn1` [drawing 225, 2-({[4-(diethylamino)butyl]amino}methyl) pyridine-4-carboxylic acid], the IC50 was 1000 to 50000 nM.
`CCN(CCN(C)C)C(=O)CNCc1cc(C(=O)O)ccn1` [drawing 226, 2-{[({[2-(dimethylamino)ethyl](ethyl)carbamoyl}methyl)amino]methyl}pyridine-4-carboxylic acid] gave an IC50 of 1000 to 50000 nM.
Compound `CCN(CC)CCCCNCc1cc(C(=O)Oc2ccc(OC)cc2)ccn1` [drawing 227, 4-methoxyphenyl 2-({[4-(diethylamino)butyl]amino}methyl) pyridine-4-carboxylate] has an IC50 of under 1000 nM.
Compound `CCOC(=O)c1ccccc1OC(=O)c1ccnc(CNCCCCN(CC)CC)c1` [drawing 228, 2-(ethoxycarbonyl)phenyl 2-({[4-(diethylamino)butyl]amino}methyl) pyridine-4-carboxylate] has an IC50 of under 1000 nM.
Compound `CCN(CC)CCCCNCc1cc(C(=O)OCCN(C)C)ccn1` [drawing 229, 2-(dimethylamino)ethyl 2-({[4-(diethylamino)butyl]amino}methyl) pyridine-4-carboxylate] has an IC50 of 1000 to 50000 nM.
`CCN(CC)CCCCNCc1cc(C(=O)OCCCN(C)C)ccn1` [drawing 230, 3-(dimethylamino)propyl 2-({[4-(diethylamino)butyl]amino}methyl) pyridine-4-carboxylate] showed an IC50 of 1000 to 50000 nM.
`CCOC(=O)Nc1ccc(COC(=O)c2ccnc(CNCCCCN(CC)CC)c2)cc1` [drawing 231, {4-[(ethoxycarbonyl)amino]phenyl}methyl 2-({[4-(diethylamino)butyl]amino}methyl) pyridine-4-carboxylate] showed an IC50 of under 1000 nM.
`CCN(CC)CCCCNCc1cc(C(=O)Oc2c(OC)cccc2OC)ccn1` [drawing 232, 2,6-dimethoxyphenyl 2-({[4-(diethylamino)butyl]amino}methyl) pyridine-4-carboxylate] showed an IC50 of under 1000 nM.
Compound `CCN(CCN(C)C)C(=O)CNCc1cc(C(=O)Oc2ccc(OC)cc2)ccn1` [drawing 234, 4-methoxyphenyl 2-{[({[2-(dimethylamino)ethyl](ethyl)carbamoyl}methyl)amino]methyl}pyridin-4-carboxylate] has an IC50 of under 1000 nM.
Work on `CCOC(=O)c1ccccc1OC(=O)c1ccnc(CNCC(=O)N(CC)CCN(C)C)c1` [drawing 235, 2-(ethoxycarbonyl)phenyl 2-{[({[2-(dimethylamino)ethyl](ethyl)carbamoyl}methyl)amino]methyl}pyridine-4-carboxylate] yielded an IC50 of under 1000 nM.
`CCOC(=O)N(C)c1ccc(COC(=O)c2ccnc(CNCCCCN(CC)CC)c2)cc1` [drawing 236] was tested, and the IC50 was under 1000 nM.
`CCN(CCN(C)C)C(=O)CNCc1cc(C(=O)Oc2ccc(C(C)(C)C)cc2)ccn1` [drawing 237, 4-tert-butylphenyl 2-{[({[2-(dimethylamino)ethyl](ethyl)carbamoyl}methyl)amino]methyl}pyridine-4-carboxylate] showed an IC50 of under 1000 nM.

These compounds were tested against T1, PLU1 (KDM5B) (Homo sapiens, UniProt Q9UGL1) (assay: Immunofluorescence assay in U2OS cells transfected with pCMVHA PLU1 (H3K4me2 mark)). Settings: 20 hours.
T1 construct: (1-752); host or cells: U2OS
T1 sequence (Q9UGL1 1-752): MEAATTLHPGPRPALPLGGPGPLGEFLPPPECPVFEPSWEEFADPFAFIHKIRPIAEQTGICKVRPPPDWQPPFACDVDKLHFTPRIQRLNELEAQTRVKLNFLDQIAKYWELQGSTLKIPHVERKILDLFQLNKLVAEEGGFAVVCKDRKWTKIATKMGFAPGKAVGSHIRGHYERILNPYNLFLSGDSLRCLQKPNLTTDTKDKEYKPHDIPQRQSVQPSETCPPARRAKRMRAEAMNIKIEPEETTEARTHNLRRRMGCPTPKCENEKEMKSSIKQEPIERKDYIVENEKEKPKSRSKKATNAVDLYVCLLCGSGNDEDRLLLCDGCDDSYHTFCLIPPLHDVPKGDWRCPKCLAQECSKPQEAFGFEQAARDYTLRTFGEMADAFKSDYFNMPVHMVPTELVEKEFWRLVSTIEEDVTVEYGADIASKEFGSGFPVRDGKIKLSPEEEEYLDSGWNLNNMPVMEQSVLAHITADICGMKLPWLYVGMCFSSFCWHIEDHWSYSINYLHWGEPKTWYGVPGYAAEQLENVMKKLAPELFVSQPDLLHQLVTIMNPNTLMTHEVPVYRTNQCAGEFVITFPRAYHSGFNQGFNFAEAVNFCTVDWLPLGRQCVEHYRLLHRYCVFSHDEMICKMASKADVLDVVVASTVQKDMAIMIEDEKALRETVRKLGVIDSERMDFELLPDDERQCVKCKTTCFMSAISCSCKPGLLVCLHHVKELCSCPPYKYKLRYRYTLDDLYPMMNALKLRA
Type: cell-based
Procedure: U2OS cells were seeded 24 hours before transfection. Transfection was performed with Fugene HD transfection reagent as recommended by the manufacturer. 6 hours after transfection, the cells were harvested and seeded into multi well plates into media containing compound. The media used was DMEM containing 5% FBS and pen/strep. 20 hours after incubation of cells with compounds, the cells were washed once in PBS, harvested by fixation with formaldehyde 4% aqueous solution, and washed 2 times in PBS. Subsequently, the cells were permeabilized in PBS with 0.2% Triton X-100 for 10 min at room temperature. Blocking was performed in PBS with 0.2% Triton X-100 and 5% FBS for 45 min at room temperature. The cells were incubated with primary antibodies diluted 1 μg/ml in blocking solution over night at 4° C. The primary antibodies used in the assays were HA.11 (Covance, MMS-101P) and the antibody detecting the mark specified in the Table 6 below. After incubation with primary antibodies, the cells were washed 3 times with PBS, incubated with secondary antibodies diluted 1:1000 (Alexa fluor 594 goat anti rabbit IgG, Invitrogen, A11012; Alexa flour 488 donkey anti mouse IgG, Invitrogen, A21202) and Hoechst, 20 μg/ml (Sigma, 33342) in blocking solution, and washed again 3 times with PBS. Finally, PBS was added and high throughput imaging and analysis were performed by an IN Cell Analyzer 1000 (GE Healthcare). The robot software analyzed individual cells and divided these into HA^+ (transfected cells) and HA^− (non-transfected cells). The IC50 values in Table 7 below were based on an average measure of the staining of the mark specified in the Table 6 below in the transfected cells.
Compound `CCN(CCC#N)C(=O)CNCc1cc(C(=O)O)ccn1` [drawing 320, 2-[({[(2-cyanoethyl)(ethyl)carbamoyl]methyl}amino)methyl] pyridine-4-carboxylic acid] has an IC50 of 1000 to 50000 nM.
`CCCCN1CCCC1CCNCc1cc(C(=O)O)ccn1` (centres unmarked) [drawing 321, 2-({[2-(1-butylpyrrolidin-2-yl)ethyl]amino}methyl) pyridine-4-carboxylic acid] showed an IC50 of 1000 to 50000 nM.
With `CN(CCCCN(Cc1ccccc1)C1CC1)C(=O)CNCc1cc(C(=O)O)ccn1` [drawing 323] the IC50 was over 50000 nM.
